The results in this text go back to BindingDB's records for doi:10.1016/j.bioorg.2013.01.001 (University of Wisconsin-Madison, 2013).

The target of the assay is Vitamin D3 receptor (Rattus norvegicus) (UniProt P13053). Kind of assay: In vitro study, VDR binding assay were performed as previously described.
Sequence of Vitamin D3 receptor (Rattus norvegicus) (P13053 whole entry, looked up): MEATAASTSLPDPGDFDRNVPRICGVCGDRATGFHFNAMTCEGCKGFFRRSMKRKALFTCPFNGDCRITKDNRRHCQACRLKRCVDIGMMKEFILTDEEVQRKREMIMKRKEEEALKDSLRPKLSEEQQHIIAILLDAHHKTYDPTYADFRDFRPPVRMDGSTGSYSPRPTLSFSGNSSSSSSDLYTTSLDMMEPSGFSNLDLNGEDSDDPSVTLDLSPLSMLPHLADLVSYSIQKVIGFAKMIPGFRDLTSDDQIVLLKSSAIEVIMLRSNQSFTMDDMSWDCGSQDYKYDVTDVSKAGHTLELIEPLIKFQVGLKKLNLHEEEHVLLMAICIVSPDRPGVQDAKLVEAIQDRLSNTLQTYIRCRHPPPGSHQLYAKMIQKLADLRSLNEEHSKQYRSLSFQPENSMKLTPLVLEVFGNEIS
In turn, `C=C1[C@H](O)CC(=C/C=C2\CCC[C@@]3(C)C2CCC3[C@H](C)CCCCO)C[C@H]1O` (some centres undefined) [Vitamin D analog, 6] returned a Ki of 0.2 nM.
Under `C=C1[C@H](O)CC(=C/C=C2\CCC[C@@]3(C)C2CCC3[C@@H](C)CCCCO)C[C@H]1O` (some centres undefined) [Vitamin D analog, 7] stands 0.3 nM.
Under `C=C1[C@H](O)CC(=C/C=C2\CCC[C@@]3(C)C2CCC3[C@@H](C)CCCC)C[C@H]1O` (some centres undefined) [Vitamin D analog, 9] stands 0.3 nM; under `C=C1[C@H](O)CC(=C/C=C2\CCC[C@@]3(C)C2CCC3[C@H](C)CCCC)C[C@H]1O` (some centres undefined) [Vitamin D analog, 8], 0.3 nM.

Broadly, the Ki is a dissociation constant, usually derived from enzyme kinetics or from competition with a known ligand. Low values mean a stronger hold on the target, high ones a looser hold on the target.
